Here are results for 8 compounds from ChEMBL document CHEMBL1201862, “PubChem BioAssay data set” (2004).

Among the test systems are 786-0; CAKI-1; CCRF-CEM; COLO 205; HCC 2998; HL-60; LOX IMVI; MDA-MB-435; NCI-H226; NCI-H23; OVCAR-5; OVCAR-8; SF-268; SF-295; SK-MEL-28; SN12C; SR; SW-620; TK-10; U-251.
What all share (test): inhibition of tumour cell growth, NCI panel, 48 h

Molecules are shown by their SMILES.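 Dose response: 5 concentrations. Exposure: 48 h. Format: 96-well plates. Endpoint: linear interpolation; highest concentration if not reached. GI50 marks 50% less growth.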 Activity calls are given as the source filed them. Cut-off read from the data, not from the text of the source: active = GI50 up to about 1.1 µM and inactive = higher. Where a SMILES comes first, the peptide text is derived from it. The star is where a group is joined. Boc = CC(C)(C)OC(=O)*

`O=[N+]([O-])c1ccc(CSc2c3ccccc3nc3ccccc23)cc1`: the GI50 in the assay on 786-0 is 1.93 µM (inactive); in the assay on CAKI-1, 15.4 µM (inactive); in the assay on CCRF-CEM it was 2.69 µM (inactive); with COLO 205, 3.13 µM (inactive); with HCC 2998, 16.1 µM (inactive); in the assay on HL-60, 2.52 µM (inactive). The GI50 in the assay on LOX IMVI is 2.93 µM (inactive); in the assay on MDA-MB-435, 4.94 µM (inactive); in the assay on NCI-H226, 16.7 µM (inactive); in the assay with NCI-H23 it was 7.05 µM (inactive); in the assay on OVCAR-5, 15.3 µM (inactive); with OVCAR-8, 3.33 µM (inactive). Moreover, the GI50 with SF-268 was 7.64 µM (inactive); with SF-295 it was 21.1 µM (inactive); in the assay on SK-MEL-28 it was 4.67 µM (inactive); with SN12C it was 3.52 µM (inactive); in the assay on SR, 3.13 µM (inactive); in the assay with SW-620 it was 2.88 µM (inactive). Besides, the values for the GI50 with TK-10 and in the assay with U-251 were 6.62 µM (inactive) and 7.28 µM (inactive), respectively.
For the compound `CCCCCCCCCCCCCCCCOc1ccc(/C=C/C2=[N+](CCCl)CCO2)cc1`, the GI50 in the assay on 786-0 is 30.8 µM (inactive); with CAKI-1 it was > 100 µM (inactive); with CCRF-CEM, > 100 µM (inactive); with COLO 205 it was 67.6 µM (inactive); with HCC 2998, > 100 µM (inactive); with HL-60, 12 µM (inactive). Besides, the GI50 is > 100 µM (inactive) in the assay on LOX IMVI; > 100 µM (inactive) in the assay on MDA-MB-435; > 100 µM (inactive) with NCI-H226; > 100 µM (inactive) with OVCAR-5; 42 µM (inactive) in the assay with OVCAR-8; 55.8 µM (inactive) in the assay on SF-295. Further, the GI50 in the assay with SK-MEL-28 was > 100 µM (inactive); in the assay with SN12C, > 100 µM (inactive); with SR, 30.1 µM (inactive); in the assay with SW-620, > 100 µM (inactive); in the assay on TK-10, 47.1 µM (inactive); in the assay with U-251 it was 32.9 µM (inactive).
Turning to `C[C@H]1[C@H](C)N1CC(O)Cn1ccnc1[N+](=O)[O-]` (stereo not given in full), the GI50 with 786-0 was > 100 µM (inactive); with CAKI-1, > 100 µM (inactive); with CCRF-CEM, > 91.6 µM (inactive); in the assay on COLO 205 it was > 100 µM (inactive); in the assay on HCC 2998, > 100 µM (inactive); in the assay on HL-60 it was > 100 µM (inactive). The GI50 in the assay with LOX IMVI, with MDA-MB-435, in the assay on NCI-H226, in the assay on NCI-H23, with OVCAR-5 and in the assay with OVCAR-8 was > 100 µM (inactive) throughout. In addition, the GI50 in the assay on SF-268, in the assay with SF-295, in the assay with SK-MEL-28, in the assay with SN12C, with SR and in the assay with SW-620 was > 100 µM (inactive) each time. Moreover, the GI50 in the assay with TK-10 and in the assay on U-251 was > 100 µM (inactive) in each case.
Consider `CC1CCCC(CC(=O)O)(CC(=O)O)C1` (stereo not given), for which the GI50 in the assay with 786-0, in the assay with CAKI-1, with CCRF-CEM, in the assay on COLO 205, in the assay on HCC 2998 and in the assay on HL-60 was > 100 µM (inactive) throughout. Also, the GI50 in the assay with LOX IMVI, in the assay with MDA-MB-435, in the assay with NCI-H226, in the assay with NCI-H23, with OVCAR-5 and in the assay with OVCAR-8 was > 100 µM (inactive) throughout. For the same compound, the GI50 in the assay with SF-268 is > 100 µM (inactive); with SK-MEL-28, 7.55 µM (inactive); with SN12C, > 100 µM (inactive); with SR, > 100 µM (inactive); with SW-620, > 100 µM (inactive); with TK-10, > 100 µM (inactive). For the same compound, the GI50 in the assay with U-251 was > 100 µM (inactive).
With `CCN1C(NN)=NS(=O)(=O)c2ccccc21`, the GI50 with 786-0, with CAKI-1, in the assay on CCRF-CEM, in the assay with COLO 205, in the assay with HCC 2998 and in the assay on HL-60 was > 100 µM (inactive) in each case. Also, the GI50 with LOX IMVI, in the assay on MDA-MB-435, with NCI-H226, with NCI-H23, in the assay with OVCAR-5 and with OVCAR-8 was > 100 µM (inactive) each time. Also, the GI50 with SF-268, in the assay with SF-295, in the assay with SK-MEL-28, in the assay on SN12C, in the assay on SR and in the assay with SW-620 was > 100 µM (inactive) each time. The GI50 with TK-10 and in the assay with U-251 was > 100 µM (inactive) throughout.
In the case of `O=C(c1ccco1)N(Cc1cccnc1)C(=S)N(Cc1cccnc1)C(=O)c1ccco1`, the GI50 is 3.06 µM (inactive) with 786-0; 19.9 µM (inactive) in the assay with CAKI-1; 2.74 µM (inactive) in the assay with CCRF-CEM; 4.02 µM (inactive) in the assay on COLO 205; 17.5 µM (inactive) with HCC 2998; 15.8 µM (inactive) in the assay with HL-60. The GI50 with LOX IMVI is 5.05 µM (inactive); in the assay on MDA-MB-435 it was 11.6 µM (inactive); in the assay on NCI-H226, 19.5 µM (inactive); with NCI-H23 it was 23.8 µM (inactive); in the assay with OVCAR-5 it was 23.7 µM (inactive); in the assay with OVCAR-8 it was 19.4 µM (inactive). The GI50 was 18.7 µM (inactive) in the assay with SF-268; 30.6 µM (inactive) in the assay on SF-295; 20.1 µM (inactive) with SK-MEL-28; 10.6 µM (inactive) in the assay with SN12C; 5.28 µM (inactive) in the assay on SR; 5 µM (inactive) in the assay on SW-620. The GI50 with TK-10 is 10.8 µM (inactive); with U-251, 16.3 µM (inactive).
For the compound `CCOC(=O)C(CC(C)C)NC(=O)C(Cc1ccccc1)NC(=O)CNC(=O)OC(C)(C)C` (stereo not drawn) (Boc-Gly-Phe-Leu-OEt; configuration not given here), the GI50 was 20.9 µM (inactive) with 786-0; 0.145 µM (active) in the assay on CAKI-1; 16.6 µM (inactive) with CCRF-CEM; 19.7 µM (inactive) with HCC 2998; 2.42 µM (inactive) in the assay on HL-60; 18.2 µM (inactive) in the assay with LOX IMVI. For the same compound, the GI50 in the assay on MDA-MB-435 is 18.2 µM (inactive); in the assay with NCI-H226, 17.3 µM (inactive); with OVCAR-8, 21.7 µM (inactive); in the assay with SF-268, 21 µM (inactive); in the assay with SF-295, 34.8 µM (inactive); in the assay with SK-MEL-28, 16.6 µM (inactive). The GI50 in the assay on SN12C was 19.2 µM (inactive); in the assay with SR, 15.8 µM (inactive); in the assay with SW-620 it was 20.6 µM (inactive); with TK-10, 31 µM (inactive); in the assay with U-251, 17.7 µM (inactive).
For `CCOC(=O)NC(Nc1cc(Cl)ccc1OC)(C(F)(F)F)C(F)(F)F`, the GI50 is > 100 µM (inactive) in the assay on CAKI-1; 25.9 µM (inactive) in the assay on CCRF-CEM; > 100 µM (inactive) in the assay on HCC 2998; > 100 µM (inactive) in the assay with HL-60; > 100 µM (inactive) in the assay on LOX IMVI; > 100 µM (inactive) in the assay with MDA-MB-435. In addition, the GI50 in the assay on NCI-H226, with NCI-H23, with OVCAR-5, with SF-268, in the assay with SK-MEL-28 and in the assay on SN12C was > 100 µM (inactive) each time. Also, the GI50 was 74.3 µM (inactive) in the assay on SR, > 100 µM (inactive) with SW-620, > 100 µM (inactive) in the assay with TK-10 and > 100 µM (inactive) with U-251.
